Laboratory results reported in patent publication US8415364B2, “Method of preventing or treating glaucoma” (Duke University, priority 2003, dated 2013).

Experiments:
[1] = tested on: Porcine primary trabecular meshwork (PTM) cells; test: Cell shape by phase contrast microscopy in PTM cells; format: cell-based
Method: (§1) Porcine primary trabecular meshwork (PTM) and ciliary muscle cells (PCM) were cultured and treated with lovastatin or compactin at concentrations of 25 μM and 50 μM. Effects on actin stress fibers (phalloidin staining) and focal adhesion formation (vinculin) were evaluated by immunofluorescence staining. Urea/glycerol polyacrylamide gel electrophoresis and Western blot analysis were utilized to investigate the effects of statins on myosin light chain (MLC) phosphorylation. Changes in cell shape were recorded using the phase contrast microscope. A constant flow organ culture perfusion system was used to measure outflow facility in perfused porcine eye anterior segments.

[2] = tested on: perfused porcine eye anterior segments; test: Constant flow organ culture perfusion of porcine eye anterior segments
Method: as §1

[3] = tested on: myosin light chain (MLC) phosphorylation; test: MLC phosphorylation by urea/glycerol PAGE and Western blot in PTM cells; format: cell-based, porcine
Method: as §1

[4] = tested on: Porcine primary trabecular meshwork (PTM) cells; test: Actin stress fibers (phalloidin) and focal adhesion (vinculin) immunofluorescence staining in PTM cells; format: cell-based
Method: as §1

[5] = PTM cells, within 24 hours of drug administration

| Structure (SMILES) | changes in cell shape ([1]; 25 μM and 50 μM) | reversibility of morphological changes ([1]; upon drug withdrawal) | drop in intraocular pressure ([2]; 100 μM, at 72 hours, control eyes 22% reduction, ongoing study) [%] | ability to decrease IOP ([2]; organ culture perfusion model) | MLC phosphorylation [3] | effect on actin stress fibers [4, 5] | effect on focal adhesions [4, 5] | effect on lovastatin-induced changes in cell shape and cytoskeletal organization ([4]; supplementation of cell culture media containing lovastatin) |
| --- | --- | --- | --- | --- | --- | --- | --- | --- |
| CC[C@H](C)C(=O)O[C@H]1C[C@@H](C)C=C2C=C[C@H](C)[C@H](CC[C@@H]3C[C@@H](O)CC(=O)O3)[C@H]21 [lovastatin] | dramatic changes in cell shape | reversible upon drug withdrawal | 48 | ability to decrease IOP | marked reduction | actin depolymerization | loss of focal adhesions |  |
| CC(C)=CCC/C(C)=C/CC/C(C)=C/CC/C(C)=C/COP(=O)(O)OP(=O)(O)O [geranylgeranyl pyrophosphate] |  |  |  |  |  |  |  | completely reversed |
